Measurements: patent publication US20230181580A1, “TREATMENT OF PROLIFERATIVE DISEASES OF THE CNS” (AUCENTRA THERAPEUTICS PTY LTD, priority 2020, published 2023)

What was measured:
MB453 = test: MTT proliferation assay, breast; assay type: cell-based; conditions: 72 h, read-out: Antiproliferative activity GI50 MB453
Description: (§1) Representative compounds from Example 1, were subjected to standard MTT (3-(4,5-dimethylthiazol-2-yl)-2,5-diphenyltetrazolium bromide) and resazurin assays on solid tumour cell lines (including GBM cell lines) and leukemia cell lines, respectively, as previously reported (Wang S et al., J Med Chem 47:1662-1675, 2004; and Diab S. et al. CheMedChem 9:962-972, 2014).

MV4-11 = test: Resazurin proliferation assay, leukaemia cell line; assay type: cell-based; conditions: Homo sapiens, 72 h, read-out: Antiproliferative activity GI50 MV4-11
Description: as §1

PANC1 = test: MTT proliferation assay, pancreas; assay type: cell-based; conditions: Homo sapiens, PANC-1, 72 h, read-out: Antiproliferative activity GI50 PANC1
Description: as §1

A2780 = test: MTT proliferation assay, ovarian; assay type: cell-based; conditions: Homo sapiens, 72 h, read-out: Antiproliferative activity GI50 A2780
Description: as §1

M229 = test: MTT proliferation assay, melanoma; assay type: cell-based; conditions: 72 h, read-out: Antiproliferative activity GI50 M229
Description: as §1

LNCap = test: MTT proliferation assay, prostate; assay type: cell-based; conditions: Homo sapiens, 72 h, read-out: Antiproliferative activity GI50 LNCap
Description: as §1

U87 GBM cells [1] = test: Subcutaneous U87 GBM xenograft, single agents; assay type: in vivo
Description: (§2) Compound 1 and compound 2 were also investigated for in vivo antitumour activity in subcutaneous xenograft models. Briefly, U87 GBM cells were harvested and resuspended in a 1:1 mixture of serum-free media and matrigel, and 5×10^6 cells injected subcutaneously into the rear flank of 5-6-week-old CD1 nu/nu female mice. When the mean tumour volume reached 150-200 mm^3, animals were randomised to treatment groups (n=10 per group) and treated orally with vehicle (0.5% carboxymethyl cellulose in water), compound 1 or compound 2 daily for 21 days with the doses shown in FIGS. 5A and 5B. Mice were observed daily for signs of toxicity and weight loss, and tumour volume measured every other day.

Colo205 = test: MTT proliferation assay, colorectal; assay type: cell-based; conditions: Homo sapiens, COLO 205, 72 h, read-out: Antiproliferative activity GI50 Colo205
Description: as §1

U87 GBM cells [2] = test: Orthotopic U87 GBM xenograft; assay type: in vivo, NSG mice
Method: In vivo anti-tumour efficacy of compound 1 and compound 2 was also investigated in GBM orthotopic mouse xenograft models. For example, compound 2 was administered orally once daily for 21 days to NSG mice (n=8) (The Jackson Laboratory, Ben Harbor, Me., United States of America) orthotopically engrafted with the U87 GBM cells per each treatment cohort. TMZ was given orally once daily for 5 days and was used as a positive control. The disease burden was measured by a non-invasive bioluminescent whole-body imaging technique.

H460 = test: MTT proliferation assay, lung; assay type: cell-based; conditions: Homo sapiens, NCI-H460, 72 h, read-out: Antiproliferative activity GI50 H460
Description: as §1

T98G = test: MTT proliferation assay, glioblastoma; assay type: cell-based; conditions: Homo sapiens, 72 h, read-out: Antiproliferative activity GI50 T98G
Method: (§3) All three GBM cell lines used in this example, namely U87, U251 and T98G, were cultured in Eagle's Minimum Essential Medium (EMEM) with 10% fetal bovine serum in 75 cm^2 flasks at 37° C. and 5% CO2. All cell lines were confirmed to be mycoplasma-free prior to any experiment setup.
as §1

U87 = test: MTT proliferation assay, glioblastoma; assay type: cell-based; conditions: Homo sapiens, U-87 MG, 72 h, read-out: Antiproliferative activity GI50 U87
Method: as §3, §1

U251 = test: MTT proliferation assay, glioblastoma; assay type: cell-based; conditions: Homo sapiens, U-251, 72 h, read-out: Antiproliferative activity GI50 U251
Method: as §3, §1

U87 xenografted mice = test: Subcutaneous U87 xenograft, compound 2 and TMZ study; assay type: in vivo; conditions: 25 mg/kg PO daily, single agent and with TMZ
Description: as §2
In another study, U87 xenografted mice (n=8 per group) were treated with: (1) vehicle, (2) compound 2 (25 mg/kg, PO, daily), (3 and 4) TMZ (5 mg/kg or 50 mg/kg, PO, 5 day/week), (5) pre-treatment with compound 2 (25 mg/kg, PO, daily ×10), followed by TMZ (5 mg/kg, PO, 5 day/week ×2), (6) pre-treatment with TMZ (5 mg/kg, PO, 5 day/week ×2) followed by compound 2 (25 mg/kg, PO, daily ×10), and (7) co-treatment with compound 2 and TMZ, respectively. All treatment groups were completed by day 21, which were followed by a 7-day drug holiday before the second cycle of treatment started from day 29 (FIG. 5B).

CDK4/D1 = CDK4/D1 (Homo sapiens, UniProt P11802); test: CDK kinase inhibition assay (radiometric / ADP Glo); assay type: biochemical
CDK4/D1, sequence (P11802 whole entry): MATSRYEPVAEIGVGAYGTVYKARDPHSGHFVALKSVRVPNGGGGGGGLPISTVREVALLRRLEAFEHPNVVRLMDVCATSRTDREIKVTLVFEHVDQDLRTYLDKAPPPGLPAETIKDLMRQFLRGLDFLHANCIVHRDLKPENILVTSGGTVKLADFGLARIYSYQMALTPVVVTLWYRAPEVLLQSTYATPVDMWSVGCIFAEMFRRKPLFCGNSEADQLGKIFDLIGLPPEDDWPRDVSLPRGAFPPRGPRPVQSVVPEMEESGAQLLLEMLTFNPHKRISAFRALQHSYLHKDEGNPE
CDK4/D1, sequence (P24385 whole entry partner): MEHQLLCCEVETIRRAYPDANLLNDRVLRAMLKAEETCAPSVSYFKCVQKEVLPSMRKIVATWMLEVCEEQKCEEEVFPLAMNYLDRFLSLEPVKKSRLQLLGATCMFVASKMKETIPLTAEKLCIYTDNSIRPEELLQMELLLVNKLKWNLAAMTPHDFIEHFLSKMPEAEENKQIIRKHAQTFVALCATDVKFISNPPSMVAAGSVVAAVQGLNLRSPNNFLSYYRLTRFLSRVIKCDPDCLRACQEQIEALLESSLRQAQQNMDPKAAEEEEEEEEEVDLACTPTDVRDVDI
Method: (§4) Eurofins Pharma Discovery or Reaction Biology Corporation Kinase Profiler services were used to measure inhibition of CDKs and other kinases by radiometric assay (RIA). Inhibition of CDK4/Cyclin D1, CDK6/Cyclin D3 and CDK9/T1 were also determined in-house using ADP Glo Kinase assays (Promega Corporation, Madison Wis., United States of America). Briefly, the kinase reaction for CDK4/Cyclin D1 and CDK6/Cyclin D3 was performed with kinase reaction buffer ([…] Tris base pH 7.5, 20 mM MgCl2, 0.4 mM DTT), 0.1 mg/ml BSA and RB-CTF substrate (retinoblastoma protein1 C-terminal fraction). For CDK9/CyclinT1, the kinase reaction was performed with standard assay buffer and Kinase Dilution Buffer and RBER-IRStide substrate. Serial dilutions of 1:3 were prepared for test compounds for 10 concentrations (from 10 μM to 0.5 nM). The kinase reactions were started by addition of ATP, incubated for 40 min at 37° C. and then stopped by adding 10 μL of ADP Glo reagent. After incubation at room temperature (RT) in the dark for 40 min, 20 μL of kinase detection reagent was added per well and incubated for 40 min. Luminescence was measured using an EnVision Multilabel plate reader (PerkinElmer, Buckinghamshire, United Kingdom). Positive and negative controls were performed in the presence and absence of CDK kinases, respectively. Half-maximal inhibition (IC50) values were calculated using a 4-parameter logistic non-linear regression model with Graphpad prism (Version 6.0). Apparent inhibition constants (Ki) values were calculated from Km (ATP) and IC50 values for the respective kinases.

CDK6/D3 = CDK6/D3 (Homo sapiens, UniProt Q00534); test: as above; assay type: biochemical
CDK6/D3, sequence (Q00534 whole entry): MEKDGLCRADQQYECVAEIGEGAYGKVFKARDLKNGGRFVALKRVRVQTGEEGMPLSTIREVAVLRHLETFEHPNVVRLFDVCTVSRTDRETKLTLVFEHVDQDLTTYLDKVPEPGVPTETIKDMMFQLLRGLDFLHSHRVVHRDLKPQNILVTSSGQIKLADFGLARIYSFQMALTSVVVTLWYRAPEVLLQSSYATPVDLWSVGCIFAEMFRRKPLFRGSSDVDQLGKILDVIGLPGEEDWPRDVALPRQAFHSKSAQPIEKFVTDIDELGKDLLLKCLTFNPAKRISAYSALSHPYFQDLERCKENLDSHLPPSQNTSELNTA
CDK6/D3, sequence (P30281 whole entry partner): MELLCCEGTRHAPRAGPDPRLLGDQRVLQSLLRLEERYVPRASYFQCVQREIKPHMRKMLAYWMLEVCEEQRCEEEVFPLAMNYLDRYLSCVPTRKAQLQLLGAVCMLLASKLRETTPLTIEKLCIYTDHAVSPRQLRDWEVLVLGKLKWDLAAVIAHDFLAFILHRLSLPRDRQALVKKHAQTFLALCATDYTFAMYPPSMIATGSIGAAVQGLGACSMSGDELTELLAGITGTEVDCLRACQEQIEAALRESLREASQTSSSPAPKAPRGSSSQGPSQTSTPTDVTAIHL
Method: as §4

CDK2/A = CDK2/A (Homo sapiens, UniProt P24941); test: as above; assay type: biochemical
Method: as §4

CDK1/B = CDK1/B (Homo sapiens, UniProt P06493); test: as above; assay type: biochemical
CDK1/B, sequence (P06493 whole entry): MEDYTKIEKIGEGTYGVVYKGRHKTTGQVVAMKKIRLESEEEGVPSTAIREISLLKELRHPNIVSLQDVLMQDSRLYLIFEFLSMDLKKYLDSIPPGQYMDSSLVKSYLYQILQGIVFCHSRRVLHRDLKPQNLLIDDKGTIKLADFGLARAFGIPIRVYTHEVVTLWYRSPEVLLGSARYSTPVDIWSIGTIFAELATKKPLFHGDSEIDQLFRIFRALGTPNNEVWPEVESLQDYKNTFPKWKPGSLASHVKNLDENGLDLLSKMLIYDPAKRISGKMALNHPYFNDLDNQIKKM
CDK1/B, sequence (P14635 whole entry partner): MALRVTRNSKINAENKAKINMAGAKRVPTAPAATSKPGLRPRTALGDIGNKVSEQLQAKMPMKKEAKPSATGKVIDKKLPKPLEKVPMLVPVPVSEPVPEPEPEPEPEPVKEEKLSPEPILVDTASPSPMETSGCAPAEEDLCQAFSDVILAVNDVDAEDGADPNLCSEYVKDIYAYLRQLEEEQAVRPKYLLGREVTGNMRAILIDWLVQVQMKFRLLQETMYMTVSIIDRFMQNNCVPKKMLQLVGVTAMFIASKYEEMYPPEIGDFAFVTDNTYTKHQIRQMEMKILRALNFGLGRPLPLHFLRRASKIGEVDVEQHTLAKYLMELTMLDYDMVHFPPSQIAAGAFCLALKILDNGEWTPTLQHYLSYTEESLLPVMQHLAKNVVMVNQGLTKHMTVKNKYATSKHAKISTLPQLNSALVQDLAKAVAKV
Method: as §4

CDK9/T1 = CDK9/T1 (Homo sapiens, UniProt P50750); test: as above; assay type: biochemical
CDK9/T1, sequence (P50750 whole entry): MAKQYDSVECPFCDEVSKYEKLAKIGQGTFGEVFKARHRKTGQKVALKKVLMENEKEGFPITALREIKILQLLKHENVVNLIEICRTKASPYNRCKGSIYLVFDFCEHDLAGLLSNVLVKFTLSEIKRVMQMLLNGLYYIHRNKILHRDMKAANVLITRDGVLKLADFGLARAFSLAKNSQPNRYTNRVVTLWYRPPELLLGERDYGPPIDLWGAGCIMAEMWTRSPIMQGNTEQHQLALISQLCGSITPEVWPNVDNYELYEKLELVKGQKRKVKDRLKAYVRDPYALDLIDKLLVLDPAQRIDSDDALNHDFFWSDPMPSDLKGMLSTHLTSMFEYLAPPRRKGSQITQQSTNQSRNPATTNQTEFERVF
CDK9/T1, sequence (O60563 whole entry partner): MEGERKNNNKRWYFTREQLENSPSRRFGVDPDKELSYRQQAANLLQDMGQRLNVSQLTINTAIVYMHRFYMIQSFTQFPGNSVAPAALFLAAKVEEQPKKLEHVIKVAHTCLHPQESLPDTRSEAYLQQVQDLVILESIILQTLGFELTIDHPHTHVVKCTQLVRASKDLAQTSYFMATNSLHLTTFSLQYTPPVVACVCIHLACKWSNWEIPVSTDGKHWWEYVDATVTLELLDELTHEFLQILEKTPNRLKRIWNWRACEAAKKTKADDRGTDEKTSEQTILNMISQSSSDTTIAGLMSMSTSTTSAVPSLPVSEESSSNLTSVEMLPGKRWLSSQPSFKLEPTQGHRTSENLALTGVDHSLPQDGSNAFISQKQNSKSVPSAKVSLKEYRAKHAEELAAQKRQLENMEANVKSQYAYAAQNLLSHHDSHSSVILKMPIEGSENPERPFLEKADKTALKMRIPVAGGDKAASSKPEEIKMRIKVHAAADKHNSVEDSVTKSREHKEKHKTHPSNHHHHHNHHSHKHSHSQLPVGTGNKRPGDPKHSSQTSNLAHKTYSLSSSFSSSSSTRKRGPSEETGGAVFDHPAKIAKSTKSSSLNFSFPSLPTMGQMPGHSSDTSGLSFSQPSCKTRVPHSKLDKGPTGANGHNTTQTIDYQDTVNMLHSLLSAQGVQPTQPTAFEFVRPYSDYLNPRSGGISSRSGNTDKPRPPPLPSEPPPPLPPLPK
Method: as §4

CDK7/H = CDK7/H (Homo sapiens, UniProt P50613); test: as above; assay type: biochemical
CDK7/H, sequence (P50613 whole entry): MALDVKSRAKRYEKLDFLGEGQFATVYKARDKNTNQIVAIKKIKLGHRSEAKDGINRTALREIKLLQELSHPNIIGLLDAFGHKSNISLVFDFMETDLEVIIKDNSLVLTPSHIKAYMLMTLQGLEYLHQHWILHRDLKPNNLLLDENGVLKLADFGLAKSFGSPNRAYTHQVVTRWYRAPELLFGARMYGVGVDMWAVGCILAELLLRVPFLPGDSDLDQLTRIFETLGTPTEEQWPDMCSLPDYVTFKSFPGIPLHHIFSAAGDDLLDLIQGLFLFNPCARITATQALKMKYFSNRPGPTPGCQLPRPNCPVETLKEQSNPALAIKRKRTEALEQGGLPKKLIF
CDK7/H, sequence (P51946 whole entry partner): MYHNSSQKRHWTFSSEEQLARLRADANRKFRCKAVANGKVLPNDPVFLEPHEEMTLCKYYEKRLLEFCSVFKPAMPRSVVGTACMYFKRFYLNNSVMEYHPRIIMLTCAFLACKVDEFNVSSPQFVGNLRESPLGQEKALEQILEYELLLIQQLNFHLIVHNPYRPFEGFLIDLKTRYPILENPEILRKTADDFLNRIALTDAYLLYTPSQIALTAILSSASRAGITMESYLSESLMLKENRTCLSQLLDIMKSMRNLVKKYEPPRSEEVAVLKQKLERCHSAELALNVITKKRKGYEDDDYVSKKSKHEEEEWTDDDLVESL
CDK7/H, sequence (P51948 whole entry partner): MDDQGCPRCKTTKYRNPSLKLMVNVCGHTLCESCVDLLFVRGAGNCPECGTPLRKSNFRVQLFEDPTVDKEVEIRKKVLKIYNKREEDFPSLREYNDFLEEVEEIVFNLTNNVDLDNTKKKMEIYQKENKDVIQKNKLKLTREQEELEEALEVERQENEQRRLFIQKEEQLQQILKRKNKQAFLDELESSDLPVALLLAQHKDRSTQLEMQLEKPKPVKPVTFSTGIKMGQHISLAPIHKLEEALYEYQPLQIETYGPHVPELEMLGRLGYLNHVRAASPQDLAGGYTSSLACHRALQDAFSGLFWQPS
Method: as §4

Structure (SMILES) | GI50 (MV4-11) | Ki (CDK4/D1) | Ki (CDK6/D3) | Ki (CDK2/A) | Ki (CDK1/B) | Ki (CDK9/T1) | Ki (CDK7/H) | GI50 (MB453) | other results
CCN1CCN(Cc2ccc(Nc3ncc(F)c(-c4sc(NC5CCCC5)nc4C)n3)nc2)CC1 [Compound 2, N-cyclopentyl-5-(2-((5-((4-ethylpiperazin-1-yl)methyl)pyridin-2-yl)amino)-5-fluoropyrimidin-4-yl)-4-methylthiazol-2-amine] | 10 nM | 0.2 nM | 3 nM | 620 nM | > 1000 nM | > 1000 nM | – | 620 nM | GI50 (PANC1): 1210 nM; GI50 (A2780): 40 nM; GI50 (M229): 830 nM; GI50 (LNCap): 280 nM; T/C (U87 GBM cells [1]; day 21, oral daily for 21 days, vs vehicle, p<0.001): 6%; tumour growth compared to vehicle treatment (U87 GBM cells [1]; oral daily for 21 days): markedly reduced tumour growth; toxicity (U87 GBM cells [1]; oral daily for 21 days, observed daily for signs of toxicity and weight loss): without any overt toxicity; GI50 (Colo205): 1550 nM; inhibition in tumour growth (TGI) (U87 GBM cells [2]; day 21, oral once daily for 21 days, vs vehicle, p<0.001): 81.4%; increase in life span ratio (ILS) (U87 GBM cells [2]; vs vehicle control, ILS=(DaysT−DaysC)/DaysC): 154.8%; GI50 (H460): 410 nM; GI50 (T98G): 4180 nM; GI50 (U87): 2170 nM; GI50 (U251): 5090 nM; toxicity (U87 xenografted mice): without any overt toxicity; anti-tumour efficacy (U87 xenografted mice; p<0.001 vs vehicle): significant anti-tumour efficacy both as a single agent and in combination with TMZ
Cc1nc(NC2CCCC2)sc1-c1ccnc(Nc2ccc(N3CCNCC3)cn2)n1 [Compound 3, N-cyclopentyl-4-methyl-5-(2-((5-(piperazin-1-yl)pyridin-2-yl)amino)pyrimidin-4-yl)thiazol-2-amine] | 20 nM | 1 nM | 34 nM | > 1000 nM | > 1000 nM | 220 nM | > 1000 nM | 70 nM | –
CCN1CCN(c2ccc(Nc3nccc(-c4sc(NC5CCCC5)nc4C)n3)nc2)CC1 [Compound 4, N-cyclopentyl-5-(2-((5-(4-ethylpiperazin-1-yl)pyridin-2-yl)amino)pyrimidin-4-yl)-4-methylthiazol-2-amine] | 10 nM | 2 nM | 11 nM | 355 nM | > 1000 nM | 141 nM | – | 290 nM | –
CNc1nc(C)c(-c2nc(Nc3ccc(N4CCC(N)CC4)cn3)ncc2F)s1 [Compound 7, 5-(2-((5-(4-aminopiperidin-1-yl)pyridin-2-yl)amino)-5-fluoropyrimidin-4-yl)-N,4-dimethylthiazol-2-amine] | 80 nM | 3 nM | 32 nM | 206 nM | > 1000 nM | > 1000 nM | > 1000 nM | 360 nM | –

Further lines, with some results ahead:

GI50 (MV4-11) | Ki (CDK4/D1) | Ki (CDK6/D3) | Ki (CDK2/A) | Ki (CDK1/B) | Ki (CDK9/T1) | Ki (CDK7/H) | Structure (SMILES) | GI50 (MB453) | other results
290 nM | 6 nM | 20 nM | 104 nM | > 1000 nM | > 1000 nM | > 1000 nM | Cc1nc(NC2CCCC2)sc1-c1nc(Nc2ccc(N3CCOCC3)cn2)ncc1F [Compound 9, N-cyclopentyl-5-(5-fluoro-2-((5-morpholinopyridin-2-yl)amino)pyrimidin-4-yl)-4-methylthiazol-2-amine] | 1450 nM | –
30 nM | 1 nM | 8 nM | 278 nM | > 1000 nM | 508 nM | 282 nM | Cc1nc(NC2CCCC2)sc1-c1ccnc(Nc2ccc(N3CCC(N)CC3)cn2)n1 [Compound 8, 5-(2-((5-(4-aminopiperidin-1-yl)pyridin-2-yl)amino)pyrimidin-4-yl)-N-cyclopentyl-4-methylthiazol-2-amine] | 100 nM | –
170 nM | 4 nM | 30 nM | > 1000 nM | > 1000 nM | > 1000 nM | > 1000 nM | CNc1nc(C)c(-c2nc(Nc3ccc(N4CCN(C(C)=O)CC4)cn3)ncc2C#N)s1 [Compound 5, 2-((5-(4-acetylpiperazin-1-yl)pyridin-2-yl)amino)-4-(4-methyl-2-(methylamino)thiazol-5-yl)pyrimidine-5-carbonitrile] | 810 nM | –
20 nM | 6 nM | 9 nM | 416 nM | > 1000 nM | > 1000 nM | 630 nM | CCN1CCN(Cc2ccc(Nc3nccc(-c4sc(NC5CCCC5)nc4C)n3)nc2)CC1 [Compound 6, N-cyclopentyl-5-(2-((5-((4-ethylpiperazin-1-yl)methyl)pyridin-2-yl)amino)pyrimidin-4-yl)-4-methylthiazol-2-amine] | 70 nM | GI50 (Colo205): 4380 nM
